32 molecules from ChEMBL document CHEMBL1128478, “Structure-activity relationships of the potent combined endothelin-A/endothelin-B receptor antagonist Ac-DDip16-Leu-Asp-Ile-Ile-Trp21: development of endothelin-B receptor selective antagonists” (J Med Chem, 1995) can be followed below.

Numbered stars: 1 amine (or outer) side, 2 acyl side, 3 side chain; on linkers, the order of the positions; unused ones are H or OH. Square brackets hold non-standard residues; d marks the D form. Peptide text beside a SMILES is read from it. * marks the point of attachment. dGly(5-dibenzosuberyl) = N[C@@H](C(=O)O)C1c2ccccc2CCc2ccccc21; X3 = O=C([C@@H](N[*:1])C(c1ccccc1)(c1ccccc1)c1ccccc1)[*:2]; Ala(1-Adamantyl) = N[C@@H](CC12CC3CC(CC(C3)C1)C2)C(=O)O; X4 = Cc1c(C)c(C)c(C[C@@H](N[*:1])C(=O)[*:2])c(C)c1C; X2 = Cc1c(C)c(C)c(C[C@H](N[*:1])C(=O)[*:2])c(C)c1C; Diphenylacetyl = O=C(C(c1ccccc1)c1ccccc1)*; dDip = N[C@@H](C(=O)O)C(c1ccccc1)c1ccccc1; Dip = N[C@H](C(=O)O)C(c1ccccc1)c1ccccc1; 3Pal = N[C@@H](Cc1cccnc1)C(=O)O; Suc = O=C(CCC(=O)[*:2])[*:1]; Orn = NCCC[C@H](N)C(=O)O

Experiment [1] deals with T1, Endothelin receptor type B (Rattus norvegicus, UniProt P21451).
T1 sequence (P21451 whole entry): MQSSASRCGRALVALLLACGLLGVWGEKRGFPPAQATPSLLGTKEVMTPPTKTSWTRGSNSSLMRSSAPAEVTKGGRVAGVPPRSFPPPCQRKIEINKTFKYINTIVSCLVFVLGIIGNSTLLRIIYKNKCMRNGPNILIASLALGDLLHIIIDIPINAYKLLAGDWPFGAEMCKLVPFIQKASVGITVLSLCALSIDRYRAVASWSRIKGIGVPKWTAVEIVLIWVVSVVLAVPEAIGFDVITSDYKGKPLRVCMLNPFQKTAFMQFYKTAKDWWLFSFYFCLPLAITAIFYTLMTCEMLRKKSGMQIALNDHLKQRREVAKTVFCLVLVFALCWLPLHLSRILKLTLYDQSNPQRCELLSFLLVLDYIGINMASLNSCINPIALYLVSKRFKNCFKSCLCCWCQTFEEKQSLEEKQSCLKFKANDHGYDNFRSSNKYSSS
The experiment in a line: Binding affinity against endothelin B receptor rat cerebellar membranes.

A short description of experiment [2]: Relative affinities against endothelin A receptor (rabbit) and endothelin B receptor (rat). Further details: reference not given here.
The target in experiment [3] is T1, Endothelin receptor type B. The experiment is described as follows: Inhibition of SRTX-6c stimulated arachidonic acid release in CHO cells expressing rat ET- B receptors.

What is called IC50 is the concentration that gives 50% inhibition. For the molecule `CC[C@H](C)[C@H](NC(=O)[C@H](CC(=O)O)NC(=O)[C@H](CC(C)C)NC(=O)[C@@H](N)C(c1ccccc1)(c1ccccc1)c1ccccc1)C(=O)N[C@H](C(=O)N[C@@H](Cc1c[nH]c2ccccc12)C(=O)O)[C@@H](C)CC` (H-[X3]LDIIW-OH), the IC50 in experiment [1] was found to be 10000 nM. In the case of `CC[C@H](C)[C@H](NC(=O)[C@H](CC(=O)O)NC(=O)[C@H](CC(C)C)NC(=O)[C@H](NC(C)=O)C1c2ccccc2CCc2ccccc21)C(=O)N[C@H](C(=O)N[C@@H](Cc1c[nH]c2ccccc12)C(=O)O)[C@@H](C)CC` (Ac-[dGly(5-dibenzosuberyl)]LDIIW-OH), the IC50 in experiment [1] worked out at 15 nM. On the same count and under the same terms, the same measure for `CC[C@H](C)[C@H](NC(=O)[C@H](CC(=O)O)NC(=O)[C@H](CC(C)C)NC(=O)[C@@H](NC(C)=O)C(c1ccccc1)c1ccccc1)C(=O)N[C@@H](CCC(=O)O)C(=O)N[C@@H](Cc1c[nH]c2ccccc12)C(=O)O` (Ac-[Dip]LDIEW-OH): more than 10000 nM; for `CC[C@H](C)[C@@H]1NC(=O)[C@H](CC(=O)O)NC(=O)[C@H](CC(C)C)NC(=O)[C@@H](Cc2ccccc2)NC(=O)[C@H](Cc2c[nH]c3ccccc23)NC(=O)[C@H]([C@@H](C)CC)NC1=O`: more than 10000 nM; for `CC[C@H](C)[C@H](NC(=O)[C@H](C)NC(=O)[C@H](CC(C)C)NC(=O)[C@@H](NC(C)=O)C(c1ccccc1)c1ccccc1)C(=O)N[C@H](C(=O)N[C@@H](Cc1c[nH]c2ccccc12)C(=O)O)[C@@H](C)CC` (Ac-[Dip]LAIIW-OH): 16 nM. Regarding `CC[C@H](C)[C@H](NC(=O)[C@H](CC(=O)O)NC(=O)[C@H](CC(C)C)NC(=O)[C@@H](NC(=O)C(c1ccccc1)c1ccccc1)C(c1ccccc1)c1ccccc1)C(=O)N[C@H](C(=O)N[C@@H](Cc1c[nH]c2ccccc12)C(=O)O)[C@@H](C)CC` (Diphenylacetyl-[Dip]LDIIW-OH), the IC50 amounted to 1300 nM in experiment [1] and 9300 nM in experiment [3]. For the same molecule, the Ratio in experiment [2] stood at 2. For the molecule `CC[C@H](C)[C@H](NC(=O)[C@H](CC(=O)O)NC(=O)[C@H](CC(C)C)NC(=O)[C@H](NC(C)=O)C(c1ccccc1)c1ccccc1)C(=O)N[C@@H](Cc1ccccc1)C(=O)N[C@@H](Cc1c[nH]c2ccccc12)C(=O)O`, the IC50 in experiment [1] was 7500 nM. On the same count and under the same terms, the same measure for `CC[C@H](C)[C@@H]1NC(=O)[C@H](CC(=O)O)NC(=O)[C@H](CC(C)C)NC(=O)[C@@H](C(c2ccccc2)c2ccccc2)NC(=O)[C@H](Cc2c[nH]c3ccccc23)NC(=O)[C@H]([C@@H](C)CC)NC1=O`: 1600 nM. On the same count and under the same terms, the same measure for `CC[C@H](C)[C@H](NC(=O)[C@H](CC(=O)O)NC(=O)[C@H](CC(C)C)NC(=O)[C@@H](NC(=O)CCC(=O)O)C(c1ccccc1)c1ccccc1)C(=O)N[C@H](C(=O)N[C@@H](Cc1c[nH]c2ccccc12)C(=O)O)[C@@H](C)CC` (Suc-[Dip]LDIIW-OH): more than 10000 nM; for `CC[C@H](C)[C@H](NC(=O)[C@H](CCC(=O)O)NC(=O)[C@H](CC(=O)O)NC(=O)[C@H](CC(C)C)NC(=O)[C@H](NC(C)=O)C(c1ccccc1)c1ccccc1)C(=O)N[C@@H](Cc1c[nH]c2ccccc12)C(=O)O` (Ac-[dDip]LDEIW-OH): 6000 nM; for `CC[C@H](C)[C@@H]1NC(=O)[C@H](CC(=O)O)NC(=O)[C@@H](NC(=O)[C@H](NC(C)=O)C(c2ccccc2)c2ccccc2)CSSC[C@@H](C(=O)N[C@@H](Cc2c[nH]c3ccccc23)C(=O)O)NC1=O`: more than 1000 nM. On the same count and under the same terms, the same measure for `CC[C@H](C)[C@H](NC(=O)[C@H](CC(=O)O)NC(=O)[C@H](CC(C)C)NC(=O)[C@@H](NC(C)=O)C(c1ccccc1)c1ccccc1)C(=O)N[C@@H](CCCCN)C(=O)N[C@@H](Cc1c[nH]c2ccccc12)C(=O)O` (Ac-[Dip]LDIKW-OH): 4700 nM. In turn, `CC[C@H](C)[C@H](NC(=O)[C@H](CC(=O)O)NC(=O)[C@H](CC(C)C)NC(=O)[C@@H](NC(C)=O)C(c1ccccc1)c1ccccc1)C(=O)N[C@H](C(=O)N[C@@H](Cc1ccc(O)cc1)C(=O)O)[C@@H](C)CC` (Ac-[Dip]LDIIY-OH) had an IC50 in experiment [1] of 6100 nM.

For the molecule `CC[C@H](C)[C@H](NC(=O)[C@H](CC(=O)O)NC(=O)[C@H](CC(C)C)NC(=O)[C@@H](N)Cc1c(C)c(C)c(C)c(C)c1C)C(=O)N[C@H](C(=O)N[C@@H](Cc1c[nH]c2ccccc12)C(=O)O)[C@@H](C)CC` (H-[X2]LDIIW-OH), the IC50 in experiment [1] was more than 10000 nM. In experiment [1], `CC[C@H](C)[C@H](NC(=O)[C@H](CC(=O)O)NC(=O)[C@H](CC(C)C)NC(=O)[C@@H](NC(C)=O)C(c1ccccc1)(c1ccccc1)c1ccccc1)C(=O)N[C@H](C(=O)N[C@@H](Cc1c[nH]c2ccccc12)C(=O)O)[C@@H](C)CC` (Ac-[X3]LDIIW-OH) registered an IC50 of 5900 nM. Same read-out and setting: the same measure for `CC[C@H](C)[C@H](NC(=O)[C@H](CCCCN)NC(=O)[C@H](CC(=O)O)NC(=O)[C@H](CC(C)C)NC(=O)[C@H](NC(C)=O)C(c1ccccc1)c1ccccc1)C(=O)N[C@@H](Cc1c[nH]c2ccccc12)C(=O)O`: 3700 nM. On the same count and under the same terms, the value for `CC[C@H](C)[C@H](NC(=O)[C@H](CC(=O)O)NC(=O)[C@H](CC(C)C)NC(=O)[C@H](CC12CC3CC(CC(C3)C1)C2)NC(C)=O)C(=O)N[C@H](C(=O)N[C@@H](Cc1c[nH]c2ccccc12)C(=O)O)[C@@H](C)CC` (Ac-[Ala(1-Adamantyl)]LDIIW-OH) was 2000 nM; that for Ac-FFDIIW-OH was 20 nM; that for `CC[C@H](C)[C@H](NC(=O)[C@H](Cc1ccc(O)cc1)NC(=O)[C@H](CC(C)C)NC(=O)[C@H](NC(C)=O)C(c1ccccc1)c1ccccc1)C(=O)N[C@H](C(=O)N[C@@H](Cc1c[nH]c2ccccc12)C(=O)O)[C@@H](C)CC` was 80 nM.

In experiment [1], `CC[C@H](C)[C@H](NC(=O)[C@H](CC(=O)O)NC(=O)[C@H](CCCN)NC(=O)[C@@H](NC(C)=O)C(c1ccccc1)c1ccccc1)C(=O)N[C@H](C(=O)N[C@@H](Cc1c[nH]c2ccccc12)C(=O)O)[C@@H](C)CC` (Ac-[Dip][Orn]DIIW-OH) yielded an IC50 of 150 nM.

`CC[C@H](C)[C@H](NC(=O)[C@H](CC(=O)O)NC(=O)[C@H](CC(C)C)NC(=O)[C@@H](NC(C)=O)C(c1ccccc1)c1ccccc1)C(=O)N[C@H](C(=O)N[C@@H](Cc1cccnc1)C(=O)O)[C@@H](C)CC` (Ac-[Dip]LDII[3Pal]-OH) yielded an IC50 in experiment [1] of more than 10000 nM.

As for `CC[C@H](C)[C@H](NC(=O)[C@H](CC(=O)O)NC(=O)[C@H](CC(C)C)NC(=O)[C@H](N)C(c1ccccc1)c1ccccc1)C(=O)N[C@H](C(=O)N[C@@H](Cc1c[nH]c2ccccc12)C(=O)O)[C@@H](C)CC` (H-[dDip]LDIIW-OH), half-maximal inhibition in experiment [3] (IC50) was put at 9200 nM.

Take `CC[C@H](C)[C@H](NC(=O)[C@H](CC(=O)O)NC(=O)[C@H](CC(C)C)NC(=O)[C@@H](Cc1c(C)c(C)c(C)c(C)c1C)NC(C)=O)C(=O)N[C@H](C(=O)N[C@@H](Cc1c[nH]c2ccccc12)C(=O)O)[C@@H](C)CC` (Ac-[X4]LDIIW-OH): in experiment [1], the IC50 is 2400 nM.

Turning to `CC[C@H](C)[C@H](NC(=O)[C@H](CC(=O)O)NC(=O)[C@H](CC(C)C)NC(=O)[C@@H](NC(C)=O)C(c1ccccc1)c1ccccc1)C(=O)N[C@H](C(=O)N[C@@H](Cc1c[nH]c2ccccc12)C(=O)O)C(C)C` (Ac-[Dip]LDIVW-OH), the IC50 in experiment [1] came to 1400 nM. With `CC[C@H](C)[C@H](NC(=O)[C@H](CC(=O)O)NC(=O)[C@H](CC(C)C)NC(=O)[C@H](NC(C)=O)C(c1ccccc1)c1ccccc1)C(=O)N[C@@H](CC(C)C)C(=O)N[C@@H](Cc1c[nH]c2ccccc12)C(=O)O`, in experiment [1], the IC50 amounted to 730 nM. Take `CC[C@H](C)[C@H](NC(=O)[C@H](C)NC(=O)[C@H](CC(=O)O)NC(=O)[C@H](CC(C)C)NC(=O)[C@H](NC(C)=O)C(c1ccccc1)c1ccccc1)C(=O)N[C@@H](Cc1c[nH]c2ccccc12)C(=O)O`: the half-inhibitory concentration (IC50) in experiment [1] was 330 nM. Turning to `CC[C@H](C)[C@H](NC(=O)[C@H](CC(=O)O)NC(=O)[C@H](CC(C)C)NC(=O)[C@H](NC(C)=O)C(c1ccccc1)c1ccccc1)C(=O)N[C@H](C(=O)N[C@@H](Cc1ccccc1)C(=O)O)[C@@H](C)CC`, the IC50 in experiment [1] was 6800 nM. On the same count and under the same terms, the same measure for `CC[C@H](C)[C@@H]1NC(=O)[C@H](CC(=O)O)NC(=O)[C@H](CC(C)C)NC(=O)[C@@H](C2c3ccccc3CCc3ccccc32)NC(=O)[C@H](Cc2c[nH]c3ccccc23)NC(=O)[C@H]([C@@H](C)CC)NC1=O`: more than 10000 nM; for `CC[C@H](C)[C@H](NC(=O)[C@H](CC1CCCCC1)NC(=O)[C@H](CC(=O)O)NC(=O)[C@H](CC(C)C)NC(=O)[C@H](NC(C)=O)C(c1ccccc1)c1ccccc1)C(=O)N[C@@H](Cc1c[nH]c2ccccc12)C(=O)O`: 210 nM; for `CC[C@H](C)[C@H](NC(=O)[C@H](Cc1ccc(O)cc1)NC(=O)[C@H](CC(=O)O)NC(=O)[C@H](CC(C)C)NC(=O)[C@@H](NC(C)=O)C(c1ccccc1)c1ccccc1)C(=O)N[C@@H](Cc1c[nH]c2ccccc12)C(=O)O` (Ac-[Dip]LDYIW-OH): 12 nM. In experiment [1], `CC[C@H](C)[C@H](NC(=O)[C@H](CC(=O)O)NC(=O)[C@@H](Cc1ccccc1)NC(=O)[C@@H](NC(C)=O)C(c1ccccc1)c1ccccc1)C(=O)N[C@H](C(=O)N[C@@H](Cc1c[nH]c2ccccc12)C(=O)O)[C@@H](C)CC` came in with an IC50 of 740 nM. The same measure, in the same setting: the same measure for `CC[C@H](C)[C@H](NC(=O)[C@@H](NC(=O)[C@H](CC(=O)O)NC(=O)[C@H](CC(C)C)NC(=O)[C@@H](NC(C)=O)C(c1ccccc1)c1ccccc1)C(C)C)C(=O)N[C@@H](Cc1c[nH]c2ccccc12)C(=O)O` (Ac-[Dip]LDVIW-OH): 51 nM.
